In patent publication US20260250426A1, “AMPHIPHILIC CELLULOSE DERIVATIVES, METHODS OF MAKING, AND USES THEREOF” (Virginia Tech Intellectual Properties, Inc., priority 2022, published 2026):

Assay: Polymer solubility in pH 6.8 buffer (visual inspection)
Method: A general workflow for evaluating cellulose ester derivatives for ASD applications can include evaluating polymer solubility, nucleation time, and surface tension. Polymer solubility was evaluated by examining solubility in pH 6.8 buffer and organic solvents. Nucleation induction time was measured using 9 different polymers and 3 model therapeutic compounds. Surface tension was determined by correlating surface tension and induction time.

## CA320S Glutarate [CA320GA]
  Water solubility (in words): water-soluble
